Results on one molecule are retold here after ChEMBL document CHEMBL1139115, “Thyroid receptor ligands. Part 7: Indirect antagonists of the thyroid hormone receptor with improved affinity” (Bioorg Med Chem Lett, 2007).

SMILES strings stand for the structures.

Experiment [1] deals with T1, Thyroid hormone receptor beta (Homo sapiens, UniProt P10828).
T1 sequence (P10828 whole entry): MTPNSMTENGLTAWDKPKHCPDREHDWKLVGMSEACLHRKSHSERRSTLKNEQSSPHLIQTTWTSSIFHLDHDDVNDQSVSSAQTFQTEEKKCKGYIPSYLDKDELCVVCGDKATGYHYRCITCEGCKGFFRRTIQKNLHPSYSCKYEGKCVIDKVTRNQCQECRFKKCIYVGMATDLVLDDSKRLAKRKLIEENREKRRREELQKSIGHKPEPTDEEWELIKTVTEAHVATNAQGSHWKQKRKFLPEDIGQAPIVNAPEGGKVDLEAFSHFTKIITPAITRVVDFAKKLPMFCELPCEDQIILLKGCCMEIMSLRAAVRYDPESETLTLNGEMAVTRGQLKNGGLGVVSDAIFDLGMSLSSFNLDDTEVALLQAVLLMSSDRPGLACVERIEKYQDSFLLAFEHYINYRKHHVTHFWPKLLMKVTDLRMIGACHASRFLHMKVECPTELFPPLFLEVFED
The experiment in a line: Binding affinity at human TRbeta1.

In experiment [2] the target is T2, Thyroid hormone receptor alpha (Homo sapiens) (UniProt P10827).
T2 sequence (whole entry): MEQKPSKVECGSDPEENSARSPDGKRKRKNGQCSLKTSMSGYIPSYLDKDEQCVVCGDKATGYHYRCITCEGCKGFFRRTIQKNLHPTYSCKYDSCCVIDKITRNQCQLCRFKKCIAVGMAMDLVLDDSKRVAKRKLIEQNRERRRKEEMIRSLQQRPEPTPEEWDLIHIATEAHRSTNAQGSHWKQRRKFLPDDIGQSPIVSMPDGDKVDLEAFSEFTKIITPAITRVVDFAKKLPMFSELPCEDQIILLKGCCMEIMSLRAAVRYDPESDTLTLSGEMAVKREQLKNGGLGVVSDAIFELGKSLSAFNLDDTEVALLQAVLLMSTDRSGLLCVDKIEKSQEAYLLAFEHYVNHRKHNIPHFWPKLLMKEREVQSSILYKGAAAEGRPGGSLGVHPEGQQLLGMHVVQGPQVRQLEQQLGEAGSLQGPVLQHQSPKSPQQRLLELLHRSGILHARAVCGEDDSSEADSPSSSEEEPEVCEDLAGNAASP
Put plainly: (§1) Antagonist activity at human TR-alpha-1 expressed in CHO cells assessed as TRAF-alpha-1-driven gene transactivation by alkaline phosphatase reporter gene assay. The experiment is classed as functional, cell-based. Further details: scale not given: the % may be the effect or the level left.

For experiment [3], the target named is T3, Thyroid hormone receptor alpha (Homo sapiens, UniProt P10827).
T3 sequence (P10827 whole entry): T2 sequence (whole entry)
The description is as §1. The experiment is classed as functional, cell-based.

Experiment [4] addresses T4, Progesterone receptor (Homo sapiens, UniProt P06401).
T4 sequence (P06401 whole entry): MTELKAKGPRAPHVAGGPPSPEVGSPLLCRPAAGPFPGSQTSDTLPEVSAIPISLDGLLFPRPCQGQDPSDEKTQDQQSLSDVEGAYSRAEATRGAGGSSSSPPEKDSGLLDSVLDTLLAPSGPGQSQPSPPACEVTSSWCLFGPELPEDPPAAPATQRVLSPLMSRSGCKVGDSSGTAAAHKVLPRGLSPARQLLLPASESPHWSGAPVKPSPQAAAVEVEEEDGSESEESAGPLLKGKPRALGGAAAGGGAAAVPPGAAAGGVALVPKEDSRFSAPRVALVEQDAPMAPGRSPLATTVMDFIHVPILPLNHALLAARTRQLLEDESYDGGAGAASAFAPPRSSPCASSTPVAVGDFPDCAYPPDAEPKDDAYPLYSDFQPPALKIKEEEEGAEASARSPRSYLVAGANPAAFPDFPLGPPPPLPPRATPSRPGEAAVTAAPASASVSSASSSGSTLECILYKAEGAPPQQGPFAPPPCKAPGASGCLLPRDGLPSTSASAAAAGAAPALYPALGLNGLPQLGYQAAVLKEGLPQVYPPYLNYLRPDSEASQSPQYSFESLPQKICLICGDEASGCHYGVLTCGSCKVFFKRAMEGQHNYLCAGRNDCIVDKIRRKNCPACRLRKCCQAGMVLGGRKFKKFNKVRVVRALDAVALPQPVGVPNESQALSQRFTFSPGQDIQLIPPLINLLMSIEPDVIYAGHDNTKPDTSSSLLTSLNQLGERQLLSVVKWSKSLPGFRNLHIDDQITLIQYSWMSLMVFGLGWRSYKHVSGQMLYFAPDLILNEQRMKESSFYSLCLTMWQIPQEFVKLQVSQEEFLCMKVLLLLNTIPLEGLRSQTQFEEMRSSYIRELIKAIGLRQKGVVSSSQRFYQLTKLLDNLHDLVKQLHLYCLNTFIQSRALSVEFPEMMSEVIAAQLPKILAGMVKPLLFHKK
The experiment in a line: Binding affinity at PR.

Experiment [5] has as its target T5, Mineralocorticoid receptor (Homo sapiens, UniProt P08235).
T5 sequence (P08235 whole entry): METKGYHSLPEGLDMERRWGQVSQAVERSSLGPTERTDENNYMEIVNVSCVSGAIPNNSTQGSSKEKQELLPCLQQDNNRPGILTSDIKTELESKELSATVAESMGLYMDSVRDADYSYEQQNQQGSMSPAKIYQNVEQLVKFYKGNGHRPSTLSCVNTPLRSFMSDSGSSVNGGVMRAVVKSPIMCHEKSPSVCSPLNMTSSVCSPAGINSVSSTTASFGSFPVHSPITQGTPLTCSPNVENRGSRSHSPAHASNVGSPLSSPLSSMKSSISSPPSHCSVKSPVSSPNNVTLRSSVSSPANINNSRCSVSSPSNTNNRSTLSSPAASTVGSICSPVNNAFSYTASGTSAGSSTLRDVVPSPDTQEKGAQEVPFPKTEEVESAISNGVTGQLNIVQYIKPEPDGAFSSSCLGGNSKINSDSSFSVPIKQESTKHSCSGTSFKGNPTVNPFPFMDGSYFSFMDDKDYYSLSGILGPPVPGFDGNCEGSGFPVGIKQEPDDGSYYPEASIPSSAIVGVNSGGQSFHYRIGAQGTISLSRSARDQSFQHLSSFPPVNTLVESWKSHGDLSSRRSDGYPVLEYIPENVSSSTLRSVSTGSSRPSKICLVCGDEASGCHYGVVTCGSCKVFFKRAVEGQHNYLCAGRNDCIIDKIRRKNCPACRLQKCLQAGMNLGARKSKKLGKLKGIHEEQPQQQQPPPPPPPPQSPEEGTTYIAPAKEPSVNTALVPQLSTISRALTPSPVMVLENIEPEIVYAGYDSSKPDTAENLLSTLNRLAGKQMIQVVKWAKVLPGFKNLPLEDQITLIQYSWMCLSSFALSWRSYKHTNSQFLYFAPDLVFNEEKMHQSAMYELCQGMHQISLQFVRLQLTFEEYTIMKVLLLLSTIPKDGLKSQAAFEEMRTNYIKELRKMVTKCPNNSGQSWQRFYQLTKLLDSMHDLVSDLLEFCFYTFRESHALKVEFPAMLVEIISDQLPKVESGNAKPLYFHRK
Put plainly: Binding affinity at MR.

The IC50 is the point on the concentration scale where inhibition reaches its midpoint. In the case of `O=C(O)CCc1cc(Br)c(OCc2cccc(Br)c2)c(Br)c1`, the IC50 in experiment [1] came out at 60 nM; in experiment [3] it was 380 nM; in experiment [4], 2500 nM; in experiment [5], 8700 nM. For the same molecule, the Activity in experiment [2] came out at 80%.
